Measured values taken from PubChem BioAssay (NCI).
Where “and” joins values, the source holds several entries; their conditions need not be identical. Equal entries are not always repeated.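 1) Cells in 96-well plates. 2) Compound, 48 h, 5 concentrations. 3) Linear interpolation between surrounding doses. 4) Unreached endpoint = highest concentration. GI50 is the concentration that inhibits growth by half. TGI marks complete inhibition of growth.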

Legend:
Test in all cases: NCI tumour cell line growth inhibition, 48 h
[1] = tested on: HCT-15 colon
[2] = tested on: SW-620 colon
[3] = tested on: UACC-257 melanoma
[4] = tested on: HCT-116 colon
[5] = tested on: LXFL 529 NSCLC
[6] = tested on: XF 498 CNS
[7] = tested on: HOP-92 NSCLC
[8] = tested on: SR leukemia
[9] = tested on: OVCAR-5 ovarian
[10] = tested on: MDA-MB-231 breast

Row | SMILES | TGI [1] | TGI [2] | TGI [3] | TGI [4] | TGI [5] [µM] | TGI [6] [µM] | TGI [7] | TGI [8] [µM] | TGI [9] | GI50 [4] [µM] | TGI [10] [µM] | GI50 [10] [µM] | GI50 [1] [µM] | GI50 [2] [µM] | GI50 [8] [µM] | GI50 [3] [µM] | GI50 [9] [µM] | GI50 [7] [µM] | GI50 [6] [µM]
1 | O/N=C1/C(=C/c2ccc(Cl)cc2)CCCC1C(NO)c1ccc(Cl)cc1 (configuration not stated) | 46.8 µM | > 100 µM | 31.6 µM | 67.1 µM | > 100 | 60.1 | – | – | – | – | – | – | – | – | – | – | – | – | –
2 | CCc1c(-c2coc(CC/C(C)=C/c3ccccc3)n2)oc(OC)c(C)c1=O | > 55.5 µM | > 44.7 µM | > 100 µM | > 87.8 µM | > 55.5 | 75.4 | > 100 µM | 29.3 | > 100 µM | – | – | – | – | – | – | – | – | – | –
3 | Cn1c(=O)c2[nH]cnc2n(CC(=O)O)c1=O | > 100 µM | > 100 µM | – | > 100 µM | > 100 | > 100 | > 100 µM | > 100 | > 100 µM | – | – | – | – | – | – | – | – | – | –
4 | N#CNc1nc(C(=O)Nc2ccc(Cl)cc2)cc(-c2ccccc2)n1 | > 100 µM | > 100 µM | > 100 µM | > 100 µM | > 100 | > 100 | > 100 µM | – | > 100 µM | – | – | – | – | – | – | – | – | – | –
5 | COC(=O)C1CCC(N2C(=O)CCC2C(=O)OC)=N1 (configuration not stated) | > 100 µM | > 100 µM | > 100 µM | > 100 µM | > 100 | > 100 | > 100 µM | – | > 100 µM | – | – | – | – | – | – | – | – | – | –
6 | O=c1cc(-c2ccc[nH]2)[nH]c2cc3c(cc12)OCO3 | > 100 µM | > 100 µM | > 100 µM | > 100 µM | > 100 | 89.2 | – | > 100 | – | 29.4 | – | – | – | – | – | – | – | – | –
7 | Cc1cccc(NC(=O)Cc2nc3ccccc3s2)c1C | > 100 µM | > 100 µM | > 100 µM | – | > 100 | > 100 | – | – | > 100 µM | – | – | – | – | – | – | – | – | – | –
8 | O=C1c2c(O)cccc2C(C(=O)CCCC(=O)C2c3cccc(O)c3C(=O)c3c(O)cccc32)c2cccc(O)c21 | 1.38 µM | 14.3 µM | 0.893 µM | 3.79 µM | 0.48 | 0.226 | 1 µM | 4.64 | 1.18 µM | – | 0.329 | – | – | – | – | – | – | – | –
9 | COc1cc(C(=C2SCCS2)c2nccc3cc(OC)c(OC)cc23)c([N+](=O)[O-])cc1OC | – | > 100 µM | > 100 µM | > 100 µM | > 100 | > 100 | > 100 µM | > 100 | > 100 µM | – | – | – | – | – | – | – | – | – | –
10 | O=C(Nc1ccccc1)OCc1nc2c([nH]1)C(=O)C=CC2=O | 38 µM | 8.79 µM | 13.7 µM | 28.4 µM | 11.1 | 30.9 | 45.1 µM | 51.7 | 36.8 µM | – | – | – | – | – | – | – | – | – | –
11 | CC(=O)OC1C/C(C)=C/[C@H](O)CC(C)/C=C/[C@@]2(C)CCC(C(C)(C)O)C12 (some centres not stated) | > 100 µM | > 100 µM | > 100 µM | > 100 µM | > 100 | > 100 | > 100 µM | > 100 | > 100 µM | – | – | – | – | – | – | – | – | – | –
12 | COc1ccc(CC(C#N)c2cc(OC)c(OC)c(OC)c2)cc1 (configuration not stated) | 11 µM | > 100 µM | > 100 µM | 3.88 µM | > 100 | 28.6 | 16.7 µM | 2.15 | > 96.9 µM | – | 3.29 | – | – | – | – | – | – | – | –
13 | C=CC[C@@]1(C#N)C[C@H](C[C@]2(C#N)C[C@H](CCl)OC(C)(C)O2)OC(C)(C)O1 | > 100 µM | > 100 µM | > 100 µM | > 100 µM | – | > 100 | > 100 µM | > 100 | > 100 µM | – | – | – | – | – | – | – | – | – | –
14 | c1ccc([P+](CCC[P+](c2ccccc2)(c2ccccc2)c2ccccc2)(c2ccccc2)c2ccccc2)cc1 | > 100 µM | > 100 µM | > 100 µM and 41.1 µM | > 100 µM | > 100 | 77.9 | 82.2 µM | > 100 | > 100 µM | 7.27 | > 100 | 23 | > 100 | 15 | 4.82 | 2.77 | 34 | – | –
15 | O=C(Cc1nc2ccccc2s1)C(=O)Nc1ccc(Cl)cc1Cl | > 100 µM | > 100 µM | > 100 µM | > 100 µM | > 100 | > 100 | > 100 µM | > 100 | > 100 µM | – | – | – | – | – | – | – | – | – | –
16 | CC(C)(C)[Si](Nc1ccccc1)(c1ccccc1)c1ccccc1 | 28.4 µM | 33.6 µM | 28.4 µM | 20.6 µM | – | 27.8 | 28.3 µM | – | – | – | – | – | – | – | – | – | – | – | –
17 | O=C(Cc1ccccc1)NN1C(=O)C(Cl)C1c1ccccc1 (configuration not stated) | > 100 µM | > 100 µM | > 100 µM | > 100 µM | 50.5 | 45.2 | – | 55.3 | > 100 µM | – | – | – | – | – | – | – | – | – | –
18 | CCCCc1oc2ccccc2c1C(=O)c1cc(I)c(OCCN(CC)CC)c(I)c1 | 4.68 µM and 8.21 µM | 4.13 µM and 9.18 µM | 6.42 µM and 9.04 µM | 3.88 µM and 9.07 µM | – | 8.25 | 2.46 µM and 10.3 µM | 4.24 | 7.27 µM and 10.9 µM | 1.82 | 5.18 | 2 | 2.06 | 1.76 | 1.68 | 2.32 | 2.46 | 0.625 | –
19 | COC(=O)NN=C1C(C)(C)C(=NNC(=O)OC)C1(C)C | > 100 µM | > 100 µM | > 100 µM | > 62.5 µM | > 100 | > 100 | > 100 µM | – | > 100 µM | – | – | – | – | – | – | – | – | – | –
20 | CN(C)NC(=S)NC12CC3CC(CC(C3)C1)C2 | > 100 µM | > 100 µM | > 100 µM | > 100 µM | > 100 | > 100 | > 100 µM | – | > 100 µM | – | – | – | – | – | – | – | – | – | –
21 | CCCCCC/C=C/CCCCCCCc1cccc(O)c1C(=O)O | > 100 µM | > 100 µM | > 100 µM | > 100 µM | > 100 | > 100 | – | > 100 | > 100 µM | – | – | – | – | – | – | – | – | – | –
22 | CCC[CH2][Sn]1([CH2]CCC)[O]CC([CH2][Sn]([c]2ccccc2)([c]2ccccc2)[c]2ccccc2)[O]1 (configuration not stated) | 26.4 µM | 15.7 µM | 26.6 µM | – | – | 28.6 | 25.7 µM | > 100 | 31 µM | – | – | – | 13.2 | 3.9 | 3.78 | 12.6 | 17 | 11.9 | 15.3
